pEC50: −log10 of the molar value.
Assays:
[1] = tested on: DENV-4 strain EDEN (SG/06K2270DK1/2005); assay: Tetravalent RT-qPCR assay Protocol A, serotype 4 EDEN; assay type: cell-based; conditions: Dengue virus, DENV4, 72 h, RT-qPCR serotype 4 EDEN, Vero cells, 3 days
Procedure: The antiviral activity of the compounds of the invention was tested against DENV-1 strain TC974#666 (NCPV), DENV-2 strain 16681, DENV-3 strain H87 (NCPV) and DENV-4 strains H241 (NCPV) and EDEN (SG/06K2270DK1/2005; GenBank accession number QG398256) in a RT-qPCR assay. Therefore, Vero cells were infected with either DENV-1, or -2, or -3, or -4 in the presence or absence of test compounds. At day 3 post-infection, the cells were lysed and cell lysates were used to prepare cDNA of both a viral target (the 3′UTR of DENV; table 2) and a cellular reference gene (β-actin, table 2). Subsequently, a duplex real time PCR was performed on a Lightcycler480 instrument. The generated Cp value is inversely proportional to the amount of RNA expression of these targets. Inhibition of DENV replication by a test compound result in a shift of Cp's for the 3′UTR gene. On the other hand, if a test compound is toxic to the cells, a similar effect on β-actin expression will be observed. The comparative ΔΔCp method is used to calculate EC50, which is based on the relative gene expression of the target gene (3′UTR) normalized with the cellular housekeeping gene (β-actin). In addition, CC50 values were determined based on the Cp values acquired for the housekeeping gene β-actin.
The culture medium consisted of minimal essential medium supplemented with 2% of heat-inactivated fetal calf serum, 0.04% gentamycin (50 mg/mL) and 2 mM of L-glutamine. Vero cells, obtained from ECACC, were suspended in culture medium and 75 μL/well was added in 96-well plates (10000 cells/well), which already contain the antiviral compounds. Typically, these plates contain a 4-fold serial dilution of 9 dilution steps of the test compound at 200 times the final concentration in 100% DMSO (500 nL; final concentration range: 25 μM-0.00038 μM). In addition, each plate contains wells which are assigned as virus controls (containing cells and virus in the absence of compound) and cell controls (containing cells in the absence of virus and compound). Once the cells were added in the plates, the plates were incubated in a fully humidified incubator (37° C., 5% CO2) until the next day. Then, DENV-1 strain TC974#666, DENV-2 strain 16681, DENV-3 strain H87 or DENV-4 strains H241 or EDEN were added. […] In parallel, 25 μL of culture medium was added to the cell controls. Next, the plates were incubated for 3 days in a fully humidified incubator (37° C., 5% CO2). After 3 days, the supernatant was removed from the wells and the cells were washed twice with ice-cold PBS (˜100 μL). The cell pellets within the 96-well plates were stored at −80° C. for at least 1 day. Next, RNA was extracted using the Cells-to-CT™ lysis kit, according to the manufacture's guideline (Applied Biosystems). The cell lysates can be stored at −80° C. or immediately used in the reverse transcription step.
In preparation of the reverse transcription step, mix A (table 3A) was prepared and 7.57 μL/well was dispensed in a 96-well plate. After addition of 5 μL of the cell lysates, a five minute denaturation step at 75° C. was performed (table 3B). Afterwards, 7.43 μL of mix B was added (table 3C) and the reverse transcription step was initiated (table 3D) to generate cDNA.
Finally, a RT-qPCR mix was prepared, mix C (table 4A), dispensed in 96-well LightCycler qPCR plates to which 3 μL of cDNA was added and the qPCR was performed according to the conditions in table 4B on a LightCycler 480.
Using the LightCycler software and an in-house LIMS system, dose response curves for each compound were calculated and the half maximal effective concentration (EC50) and the half maximal cytotoxic concentration (CC50) were determined (Tables 6-9).

[2] = tested on: DENV-2 16681 strain labeled with eGFP; assay: DENV-2 antiviral assay (eGFP fluorescence, Vero cells); assay type: cell-based, Dengue virus; conditions: DENV-2 16681 eGFP, MOI 0.5, 3 days
Procedure: The antiviral activity of all the compounds of the invention was tested against DENV-2 16681 strain which was labeled with enhanced green fluorescent protein (eGPF). The culture medium consists of minimal essential medium supplemented with 2% of heat-inactivated fetal calf serum, 0.04% gentamycin (50 mg/mL) and 2 mM of L-glutamine. Vero cells, obtained from ECACC, were suspended in culture medium and 25 μL was added to 384-well plates (2500 cells/well), which already contain the antiviral compounds. Typically, these plates contain a 4-fold serial dilution of 9 dilution steps of the test compound at 200 times the final concentration in 100% DMSO (200 nL). In addition, each compound concentration is tested in quadruplicate (final concentration range: 25 μM-0.00038 μM). Finally, each plate contains wells which are assigned as virus controls (containing cells and virus in the absence of compound), cell controls (containing cells in the absence of virus and compound) and medium controls (containing medium in the absence of cells, virus and compounds). To the wells assigned as medium control, 25 μL of culture medium was added instead of Vero cells. Once the cells were added to the plates, the plates were incubated for 30 minutes at room temperature to allow the cells to distribute evenly within the wells. Next, the plates were incubated in a fully humidified incubator (37° C., 5% CO2) until the next day. Then, DENV-2 strain 16681, labeled with eGFP, was added at a multiplicity of infection (MOI) of 0.5. Therefore, 15 μL of virus suspension was added to all the wells containing test compound and to the wells assigned as virus control. In parallel, 15 μL of culture medium was added to the medium and cell controls. Next, the plates were incubated for 3 days in a fully humidified incubator (37° C., 5% CO2). At the day of the read out, the eGFP fluorescence was measured using an automated fluorescence microscope at 488 nm (blue laser). Using an in-house LIMS system, inhibition dose response curves for each compound were calculated and the half maximal effective concentration (EC50) was determined. Therefore, the percent inhibition (I) for every test concentration is calculated using the following formula: I=100*(ST−SCC)/(SVC−SCC); ST, SCC and SVC are the amount of eGFP signal in the test compound, cell control and virus control wells, respectively. The EC50 represents the concentration of a compound at which the virus replication is inhibited with 50%, as measured by a 50% reduction of the eGFP fluorescent intensity compared to the virus control. The EC50 is calculated using linear interpolation (Table 1).

Structure (SMILES)	pEC50 [1]	pEC50 [2]
COc1cc(NC(C(=O)c2c[nH]c3cc(F)c(F)cc23)c2ccc(Cl)cc2OC)cc(OCCO)c1 (single isomer, unassigned) [Compound 9A, 2-(4-chloro-2-methoxyphenyl)-1-(5,6-difluoro-1H-indol-3-yl)-2-((3-(2-hydroxyethoxy)-5-methoxyphenyl)amino)ethanone]	8.33	–
COc1cc(NC(C(=O)c2c[nH]c3c(C)cc(F)cc23)c2ccc(Cl)cc2OC)cc(OCCO)c1 (single isomer, unassigned) [Compound 8A, 2-(4-chloro-2-methoxyphenyl)-1-(5-fluoro-7-methyl-1H-indol-3-yl)-2-((3-(2-hydroxyethoxy)-5-methoxyphenyl)amino)ethanone]	8.19	8.92
COc1cc(NC(C(=O)c2c[nH]c3c(F)cc(C)cc23)c2ccc(Cl)cc2OC)cc(OCCO)c1 (single isomer, unassigned) [Compound 10A, 2-(4-chloro-2-methoxyphenyl)-1-(7-fluoro-5-methyl-1H-indol-3-yl)-2-((3-(2-hydroxyethoxy)-5-methoxyphenyl)amino)ethanone]	8.07	8.49
COc1cc(NC(C(=O)c2c[nH]c3cc(Cl)ccc23)c2ccc(Cl)cc2OC)cc(OCCO)c1 (single isomer, unassigned) [Compound 4A, 1-(6-chloro-1H-indol-3-yl)-2-(4-chloro-2-methoxyphenyl)-2-((3-(2-hydroxyethoxy)-5-methoxyphenyl)amino)ethanone]	8.28	9.15
COc1cc(NC(C(=O)c2c[nH]c3c(F)c(F)ccc23)c2ccc(Cl)cc2OC)cc(OCCO)c1 (single isomer, unassigned) [Compound 11B, 2-(4-chloro-2-methoxyphenyl)-1-(6,7-difluoro-1H-indol-3-yl)-2-((3-(2-hydroxyethoxy)-5-methoxyphenyl)amino)ethanone]	8.01	8.92
COc1cc(NC(C(=O)c2c[nH]c3cc(F)ccc23)c2ccc(Cl)cc2OC)cc(OCCO)c1 (single isomer, unassigned) [Compound 1A, 2-(4-chloro-2-methoxyphenyl)-1-(6-fluoro-1H-indol-3-yl)-2-((3-(2-hydroxyethoxy)-5-methoxyphenyl)amino)ethanone]	8.21	9.09
COc1cc(NC(C(=O)c2c[nH]c3c(C)c(F)ccc23)c2ccc(Cl)cc2OC)cc(OCCO)c1 (single isomer, unassigned) [Compound 2A, 2-(4-chloro-2-methoxyphenyl)-1-(6-fluoro-7-methyl-1H-indol-3-yl)-2-((3-(2-hydroxyethoxy)-5-methoxyphenyl)amino)ethanone]	8.37	9.09
COc1cc(NC(C(=O)c2c[nH]c3cc(OC)c(F)cc23)c2ccc(Cl)cc2OC)cc(OCCO)c1 (single isomer, unassigned) [Compound 7A, 2-(4-chloro-2-methoxyphenyl)-1-(5-fluoro-6-methoxy-1H-indol-3-yl)-2-((3-(2-hydroxyethoxy)-5-methoxyphenyl)amino)ethanone]	8.18	8.96
COc1cc(NC(C(=O)c2c[nH]c3c(C)c(Cl)ccc23)c2ccc(Cl)cc2OC)cc(OCCO)c1 (single isomer, unassigned) [Compound 3A, 2-(4-chloro-2-methoxyphenyl)-1-(6-chloro-7-methyl-1H-indol-3-yl)-2-((3-(2-hydroxyethoxy)-5-methoxyphenyl)amino)ethanone]	8.54	9.47
COc1cc(NC(C(=O)c2c[nH]c3cc(OC)ccc23)c2ccc(Cl)cc2OC)cc(OCCO)c1 (single isomer, unassigned) [Compound 5A, 2-(4-chloro-2-methoxyphenyl)-2-((3-(2-hydroxyethoxy)-5-methoxyphenyl)amino)-1-(6-methoxy-1H-indol-3-yl)ethanone]	8.34	9.08
COc1cc(NC(C(=O)c2c[nH]c3cc(OC)c(C)cc23)c2ccc(Cl)cc2OC)cc(OCCO)c1 (single isomer, unassigned) [Compound 6A, 2-(4-chloro-2-methoxyphenyl)-2-((3-(2-hydroxyethoxy)-5-methoxyphenyl)amino)-1-(6-methoxy-5-methyl-1H-indol-3-yl)ethanone]	8.54	9.09

From patent publication US9944598B2, “Mono- or di-substituted indole derivatives as dengue viral replication inhibitors” (priority 2014, dated 2018)
